Laboratory results published in patent US20210260101A1, “POTENTIATED ANTIBIOTIC COMPOSITIONS AND METHODS OF USE FOR TREATING BACTERIAL INFECTIONS AND BIOFILMS” (priority 2018, published 2021).
In brackets after ≈: the same amount, converted by molar mass. Like-named read-outs stand apart in the source and are kept apart here.

Assays:
[1] = test system: MRSA clinical isolate OU6; assay: Clinical laboratory susceptibility (MicroScan), MRSA isolate 6; format: cell-based, S. aureus; conditions: MicroScan PC33 gram positive panel
[2] = test system: MRSA clinical isolate OU11; assay: Clinical laboratory susceptibility (MicroScan), MRSA isolate 11; format: cell-based, S. aureus; conditions: MicroScan PC33 gram positive panel
[3] = test system: clinical isolates OU15, OU19, and OU22; assay: Checkerboard assay, isolates OU15, OU19 and OU22 reported together; format: cell-based, Pseudomonas aeruginosa; conditions: for MIC: Pseudomonas aeruginosa; for interaction with BPEI600: isolates OU15, OU19, OU22 (data not shown)
Procedure: (§1) Cells were grown at 35° C. with shaking. The OD600 (optical density at 600 nm) was monitored and recorded for each sample over 24 hr. Each checkerboard trial was done in triplicate using sterile Greiner CellStar™ flat bottom polystyrene plates, catalog #655180. Each growth curve was done in duplicate.

[4] = test system: MRSA USA 300 ATCC 1717; assay: Checkerboard MIC assay against MRSA USA300 (Example 1); format: cell-based, Staphylococcus aureus; conditions: MRSA USA300; for MIC: Staphylococcus aureus, agent alone, read-out: MIC of antibiotic only
[5] = test system: MRSA 43300 biofilms; assay: MBEC assay (MICCP and MBEC), MRSA 43300; format: cell-based, Staphylococcus aureus
Procedure: (§2) Bacterial culture was inoculated in an MBEC pronged-inoculator and incubated for 24 hr to allow biofilm formation. […] The change in optical density at 600 nm (Δ OD600) was measured. Minimum inhibitory concentration (MIC) of each drug is determined as the lowest concentration that inhibited cell growth (ΔOD600<0.05). Fractional inhibitory concentration index (FICI) was calculated as: […]
(§3) Synergistic effects are determined using EUCAST guidelines: synergy (FICI≤0.5), additivity (0.5<FICI<1), and indifference (FICI>1). The treated pronged-inoculator was then washed and transferred to a recovery plate with 200 μL MHB/well to sonicate and recover any remaining biofilm bacteria. The recovery plate was then incubated overnight before measuring ΔOD600 to determine MBECs and FICIs of the drugs tested on the biofilms.
(§4) MBEC assays were utilized on MRSA OU6 and MRSA OU11 and a lab strain MRSA ATCC 43300. The MRSA bacteria were used to inoculate a 96-well inoculation plate, where MRSA biofilms were grown on prongs protruding from the plate lid, known as the MBEC inoculator lid and based on the Calgary biofilm device. […] The final step was moving the treated inoculation lid to a third plate (the recovery plate) containing growth-media only and using sonication to dislodge the biofilm and recover cells remaining in the biofilm. In this manner, the synergy of BPEI and ampicillin against MRSA biofilms was evaluated. Standard CLSI (Clinical & Laboratory Standards Institute) guidelines describe a standard MIC assay using 96-well plates inoculated with a standard cell density, usually ˜10^6 CFU/mL. However, the MIC data reported here is non-standard because, rather than inoculation via micropipette transfer from an overnight culture, inoculation of the challenge plate occurs from the biofilm-coated inoculation lid where treatment challenge disrupts the protective biofilm EPS matrix. […] The MBEC is determined from cell growth in the recovery plate and reflects the ability of BPEI600, ampicillin, or its combinations to kill the biofilm remaining attached to the prongs of the inoculation lid. […]

[6] = test system: MRSA OU6 biofilms; assay: MBEC assay (MICCP and MBEC), MRSA OU6; format: cell-based, Staphylococcus aureus
Procedure: as §2, §3, §4

[7] = test system: MRSA OU11 biofilms; assay: MBEC assay (MICCP and MBEC), MRSA OU11; format: cell-based, Staphylococcus aureus
Procedure: as §2, §3, §4

[8] = test system: PA OU22; assay: Checkerboard assay, PA OU22; format: cell-based, Pseudomonas aeruginosa; conditions: Pseudomonas aeruginosa, PA OU22
Procedure: as §1

[9] = test system: PA OU15; assay: Checkerboard assay, PA OU15; format: cell-based, Pseudomonas aeruginosa; conditions: Pseudomonas aeruginosa, PA OU15
Procedure: as §1

[10] = test system: PA OU19; assay: Checkerboard assay, PA OU19; format: cell-based, Pseudomonas aeruginosa; conditions: Pseudomonas aeruginosa, PA OU19
Procedure: as §1

[11] = test system: S. epidermidis ATCC 12228 (MSSE 12228); assay: MIC/potentiation against MSSE 12228; format: cell-based, Staphylococcus epidermidis; conditions: for MIC of antibiotic only: agent alone
[12] = test system: S. epidermidis ATCC 35984 (MRSE 35984); assay: MIC/potentiation against MRSE 35984 (Example 1); format: cell-based, Staphylococcus epidermidis; conditions: for MIC of antibiotic only: agent alone
[13] = read-out: cefepime MIC with 16 μg/mL of BPEI600

Compound: CCC[C@@H]1C[C@@H](C(=O)N[C@@H]([C@H]2O[C@H](SC)[C@H](O)[C@@H](O)[C@H]2O)[C@H](C)Cl)N(C)C1 [Clindamycn]
- MIC [1]: > 4 µg/mL
- MIC [2]: > 4 µg/mL

Compound: CCCCCCCCCC(=O)N[C@@H](Cc1c[nH]c2ccccc12)C(=O)N[C@H](CC(N)=O)C(=O)N[C@@H](CC(=O)O)C(=O)N[C@@H]1C(=O)NCC(=O)N[C@@H](CCCN)C(=O)N[C@@H](CC(=O)O)C(=O)N[C@H](C)C(=O)N[C@@H](CC(=O)O)C(=O)NCC(=O)N[C@H](CO)C(=O)N[C@@H]([C@H](C)CC(=O)O)C(=O)N[C@@H](CC(=O)c2ccccc2N)C(=O)O[C@@H]1C [Daptomycin]
- MIC [1]: ≤ 0.5 µg/mL
- MIC [2]: ≤ 0.5 µg/mL

Compound: CC[C@H]1OC(=O)[C@H](C)[C@@H](O[C@H]2C[C@@](C)(OC)[C@@H](O)[C@H](C)O2)[C@H](C)[C@@H](O[C@@H]2O[C@H](C)C[C@H](N(C)C)[C@H]2O)[C@](C)(O)C[C@@H](C)C(=O)[C@H](C)[C@@H](O)[C@]1(C)O [Erythromycin]
- MIC [3]: 256 µg/mL
- MIC ([3]; read-out: erythromycin MIC in the presence of 16 μg/mL of BPEI600): 64 µg/mL
- factor of reduction of erythromycin MIC by BPEI600 ([3]; data not shown): 4
- interaction with BPEI600 [3]: exhibited synergy
- MIC [1]: > 4 µg/mL
- MIC [2]: > 4 µg/mL

Compound: CN(C)[C@@H]1C(O)=C(C(N)=O)C(=O)[C@@]2(O)C(O)=C3C(=O)c4c(O)cccc4[C@@](C)(O)[C@H]3C[C@@H]12 [Tetracycline]
- MIC [1]: ≤ 4 µg/mL
- MIC [2]: ≤ 4 µg/mL

Compound: CC1(C)S[C@@H]2[C@H](NC(=O)[C@H](N)c3ccc(O)cc3)C(=O)N2[C@H]1C(=O)O [amoxicillin]
- MIC with 4 μg/ml (6.75 μM) 600-Da BPEI [4]: 1 µg/mL
- MIC [4]: 4 µg/mL

Compound: CC1(C)S[C@@H]2[C@H](NC(=O)[C@H](N)c3ccccc3)C(=O)N2[C@H]1C(=O)O [ampicillin]
- MICCP ([5]; MRSA 43300, challenge plate, agent alone): 128 µg/mL
- Ampicillin MBEC + 64 μg/mL BPEI ([5]; MRSA 43300 biofilm): 2 µg/mL
- MBEC ([5]; MRSA 43300 biofilm, agent alone): >256 µg/mL
- MICCP ([6]; MRSA OU6, challenge plate, agent alone): 256 µg/mL
- Ampicillin MBEC + 64 μg/mL BPEI ([6]; MRSA OU6 biofilm): 64 µg/mL
- MBEC ([6]; MRSA OU6 biofilm, agent alone): >256 µg/mL
- MICCP ([7]; MRSA OU11, challenge plate, agent alone): 128 µg/mL
- Ampicillin MBEC + 64 μg/mL BPEI ([7]; MRSA OU11 biofilm): 32 µg/mL
- MBEC ([7]; MRSA OU11 biofilm, agent alone): >256 µg/mL

Compound: CO/N=C(\C(=O)N[C@@H]1C(=O)N2C(C(=O)[O-])=C(C[N+]3(C)CCCC3)CS[C@H]12)c1csc(N)n1 [cefepime]
- MIC [8, 13]: 8 µg/mL
- MIC ([8]; agent alone, read-out: MIC): 128 µg/mL
- MIC [9, 13]: 0.5 µg/mL
- MIC ([9]; agent alone, read-out: MIC): 32 µg/mL
- MIC with 4 μg/ml (6.75 μM) 600-Da BPEI [4]: 1 µg/mL
- MIC [4]: 4 µg/mL
- MIC [10, 13]: 8 µg/mL
- MIC ([10]; agent alone, read-out: MIC): 64 µg/mL

Compound: CO/N=C(\C(=O)N[C@@H]1C(=O)N2C(C(=O)O)=CCS[C@H]12)c1csc(N)n1 [ceftizoxime]
- MIC, antibiotic + 32 μg/ml (20 μM) PEG1000BPEI600 [4]: 8 µg/mL
- MIC, antibiotic + 64 μg/ml (40 μM) PEG1000BPEI600 [4]: 0.5 µg/mL
- MIC [4]: 128 µg/mL

Compound: CC1=C(C(=O)O)N2C(=O)[C@@H](NC(=O)[C@H](N)c3ccccc3)[C@H]2SC1 [cephalexin]
- MIC with 4 μg/ml (6.75 μM) 600-Da BPEI [4]: 0.5 µg/mL
- MIC [4]: 2 µg/mL

Compound: C[C@@H](O)[C@H]1C(=O)N2C(C(=O)O)=C(SCCN=CN)C[C@H]12 [imipenem]
- MIC with 4 μg/ml (6.75 μM) 600-Da BPEI [4]: 0.03 µg/mL
- MIC [4]: 4 µg/mL

Compound: CC(=O)NC[C@H]1CN(c2ccc(N3CCOCC3)c(F)c2)C(=O)O1 [linezolid]
- MIC, antibiotic + 2 μg/ml (3.375 μM) 600-Da BPEI [11]: 0.25 µg/mL
- MIC, antibiotic + 4 μg/ml (6.75 μM) 600-Da BPEI [11]: 0.25 µg/mL
- MIC of antibiotic only [11]: 0.25 µg/mL
- MIC [1]: 2 µg/mL (≈ 5.93 µM)
- MIC [2]: 2 µg/mL (≈ 5.93 µM)
- MIC with 4 μg/ml (6.75 μM) 600-Da BPEI [4]: 0.5 µg/mL
- MIC [4]: 0.5 µg/mL
- MIC, antibiotic + 2 μg/ml (3.375 μM) 600-Da BPEI [12]: 0.5 µg/mL
- MIC, antibiotic + 4 μg/ml (6.75 μM) 600-Da BPEI [12]: 0.25 µg/mL
- MIC of antibiotic only [12]: 1 µg/mL

Compound: C[C@@H](O)[C@H]1C(=O)N2C(C(=O)O)=C(S[C@@H]3CN[C@H](C(=O)N(C)C)C3)[C@H](C)[C@H]12 [meropenem]
- MIC ([3]; isolates OU15, OU19, OU22, agent alone (data not shown), read-out: MIC): 16 to 64 µg/mL
- interaction with BPEI600 [3]: no synergy (no synergy (FICI≥1))

Compound: CN[C@H](CC(C)C)C(=O)N[C@H]1C(=O)N[C@@H](CC(N)=O)C(=O)N[C@H]2C(=O)N[C@H]3C(=O)N[C@H](C(=O)N[C@H](C(=O)O)c4cc(O)cc(O)c4-c4cc3ccc4O)[C@H](O)c3ccc(c(Cl)c3)Oc3cc2cc(c3O[C@@H]2O[C@H](CO)[C@@H](O)[C@H](O)[C@H]2O[C@H]2C[C@](C)(N)[C@H](O)[C@H](C)O2)Oc2ccc(cc2Cl)[C@H]1O [vancomycin]
- MIC, antibiotic + 2 μg/ml (3.375 μM) 600-Da BPEI [11]: 1 µg/mL
- MIC, antibiotic + 4 μg/ml (6.75 μM) 600-Da BPEI [11]: 1 µg/mL
- MIC of antibiotic only [11]: 1 µg/mL
- MIC [1]: 2 µg/mL (≈ 1.38 µM)
- MIC [2]: 1 µg/mL (≈ 0.69 µM)
- MIC, antibiotic + 2 μg/ml (3.375 μM) 600-Da BPEI [12]: 2 µg/mL
- MIC, antibiotic + 4 μg/ml (6.75 μM) 600-Da BPEI [12]: 0.5 µg/mL
- MIC of antibiotic only [12]: 2 µg/mL

Compound: Gentamicin
- MIC [1]: ≤ 4 µg/mL
- MIC [2]: ≤ 4 µg/mL
